Test results reported in PMC5036131, “Fragment-based discovery of a new family of non-peptidic small-molecule cyclophilin inhibitors with potent antiviral activities” (Nature Communications, 2016).

Assays:
[1] = LogD determination by reverse-phase HPLC; assay type: physicochemical; conditions: octanol/water, pH 7.4
Protocol: The octanol/water partitioning (LogD) values of compounds were determined from their retention times during reverse-phase HPLC at pH 7.4 with diode array ultraviolet/visible detection. The LogD values were obtained by interpolation within a standard curve (range LogD: 0.3–5.7) generated with seven standards, with LogD values previously determined using the shake-flask method.

CYP2C9 [2] = target: T1, CYP2C9 (Homo sapiens, UniProt P11712); assay: Metabolism by recombinant human cytochrome P450, CYP2C9; assay type: in vitro ADME; conditions: recombinant enzyme
Protocol: (§1) […] of compound was incubated with individual bacterially expressed recombinant human cytochromes P450 co-expressed with human NADPH cytochrome P450 reductase. […] Enzyme-selective positive control substrates were tested in parallel.

CYP2C19 = CYP2C19 (Homo sapiens, UniProt P33261); assay: Cytochrome P450 enzyme inhibition assay, CYP2C19; assay type: in vitro ADME; set-up: incubated with human hepatic microsomal fractions and NADPH; from tissue; host or cells: human hepatic microsomal fractions; conditions: human hepatic microsomal fractions, up to 25 μM
Protocol: (§2) Up to 25 μM of compounds 29 and 30 was incubated with human hepatic microsomal fractions and NADPH in the presence of individual probe substrates. All assays were designed so that conditions were linear with respect to time and protein concentration. Substrates were present at concentrations equal to or lower than their respective Km values. Enzyme selective products were determined by fluorometry (ethoxyresorufin O-deethylase) or by specific LC-MS/MS assays. Relative enzyme activities were determined by comparison with those assayed with DMSO vehicle instead of inhibitor. IC50 values were calculated by nonlinear curve fitting using a sigmoidal model. Positive control inhibitors for each enzyme were tested in parallel.

HIV-IIIb = assay: Anti-HIV activity in MT4 cells; assay type: cell-based, human immunodeficiency virus; conditions: 5 days
CYP2D6 = CYP2D6 (Homo sapiens, UniProt P10635); assay: Metabolism by recombinant human cytochrome P450, CYP2D6; assay type: in vitro ADME; conditions: recombinant enzyme
Protocol: as §1

CYP2B6 = target: T2, CYP2B6 (Homo sapiens, UniProt P20813); assay: Metabolism by recombinant human cytochrome P450, CYP2B6; assay type: in vitro ADME; conditions: recombinant enzyme
T2 sequence (P20813 1-491): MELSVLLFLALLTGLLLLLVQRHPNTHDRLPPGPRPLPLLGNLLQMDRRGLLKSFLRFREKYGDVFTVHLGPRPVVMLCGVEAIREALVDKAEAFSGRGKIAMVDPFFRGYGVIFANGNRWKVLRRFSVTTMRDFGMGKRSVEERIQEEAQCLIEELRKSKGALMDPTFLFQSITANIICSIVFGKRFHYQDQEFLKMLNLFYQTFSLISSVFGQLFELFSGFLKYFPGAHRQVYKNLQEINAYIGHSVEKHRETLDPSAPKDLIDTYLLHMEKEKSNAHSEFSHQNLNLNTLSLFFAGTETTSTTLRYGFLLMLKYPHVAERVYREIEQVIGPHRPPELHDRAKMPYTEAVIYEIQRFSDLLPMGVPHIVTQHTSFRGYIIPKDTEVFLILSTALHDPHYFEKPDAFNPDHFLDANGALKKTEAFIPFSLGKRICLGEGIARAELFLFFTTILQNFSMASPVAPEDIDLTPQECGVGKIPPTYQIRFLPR
Protocol: as §1

CYP2C8 = target: T3, CYP2C8 (Homo sapiens, UniProt P10632); assay: Cytochrome P450 enzyme inhibition assay, CYP2C8; assay type: in vitro ADME; set-up: incubated with human hepatic microsomal fractions and NADPH; from tissue; host or cells: human hepatic microsomal fractions; conditions: human hepatic microsomal fractions, up to 25 μM
T3 sequence (P10632 1-490): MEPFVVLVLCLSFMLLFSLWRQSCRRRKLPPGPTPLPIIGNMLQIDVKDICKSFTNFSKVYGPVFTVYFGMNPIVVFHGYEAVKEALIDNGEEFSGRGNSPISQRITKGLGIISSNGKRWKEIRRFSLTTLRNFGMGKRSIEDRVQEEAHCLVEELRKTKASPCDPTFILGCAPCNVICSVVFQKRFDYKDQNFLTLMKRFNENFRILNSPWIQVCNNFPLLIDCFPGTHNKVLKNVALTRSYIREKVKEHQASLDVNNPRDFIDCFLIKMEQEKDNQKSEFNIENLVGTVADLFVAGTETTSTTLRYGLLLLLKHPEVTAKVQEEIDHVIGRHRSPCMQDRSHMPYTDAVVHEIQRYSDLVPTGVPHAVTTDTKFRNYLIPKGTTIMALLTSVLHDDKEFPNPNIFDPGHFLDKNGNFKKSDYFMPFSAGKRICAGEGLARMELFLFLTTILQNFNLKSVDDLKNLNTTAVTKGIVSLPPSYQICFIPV
Protocol: as §2

[3] = Human plasma protein binding, equilibrium dialysis; assay type: in vitro ADME; conditions: 2 μM, 37 °C, 3 h dialysis
Protocol: The extent of binding to pooled human plasma and to cell culture medium containing 10% fetal bovine serum was determined by equilibrium dialysis against isotonic phosphate buffer. Equilibrium dialysis was conducted at 37 °C with initial concentrations of compounds of 2 μM in the non-buffer matrix. A 3 h dialysis time was used for equilibration. Following dialysis, plasma samples were drained into pre-weighed polypropylene tubes containing buffer and buffer samples were drained into pre-weighed tubes containing blank plasma. Post-dialysis plasma and buffer weights were measured and recorded for concentration and recovery calculations. After precipitation and centrifugation, LC-MS/MS assays were used for the analysis of each of the protein/phosphate buffer-mixed matrices. Relative binding to human plasma and cell culture medium was determined in a similar manner, except that the two matrices were dialysed against each other directly and the compound was spiked into both matrices. After equilibration, the plasma sample was diluted with blank cell culture medium and the cell culture medium diluted with blank plasma.

[4] = Stability with hepatic microsomal fractions; assay type: in vitro ADME; conditions: human microsomes 0.5 mg protein/ml, NADPH, 3 μM
Protocol: The compounds (3 μM) were incubated in duplicate for up to 1 h in the presence of human hepatic microsomal fractions (0.5 mg protein ml^−1 final) at 37 °C. The addition of cofactor solution (NADPH generating system) initiated the reaction and aliquots were removed at 0, 5, 15, 30, 45 and 60 min after the start. The concentrations of the compounds in each sample were determined using specific LC-MS/MS assays. The half-life for the disappearance of each was determined by fitting the concentration-time data with a monophasic exponential model. A control compound (verapamil) was run in parallel to test the enzymatic integrity of the microsomal fractions.

CYP2C9 [5] = target: T1, CYP2C9; assay: Cytochrome P450 enzyme inhibition assay, CYP2C9; assay type: in vitro ADME; set-up: incubated with human hepatic microsomal fractions and NADPH; from tissue; host or cells: human hepatic microsomal fractions; conditions: human hepatic microsomal fractions, up to 25 μM
Protocol: as §2

T1 sequence (P11712 whole entry): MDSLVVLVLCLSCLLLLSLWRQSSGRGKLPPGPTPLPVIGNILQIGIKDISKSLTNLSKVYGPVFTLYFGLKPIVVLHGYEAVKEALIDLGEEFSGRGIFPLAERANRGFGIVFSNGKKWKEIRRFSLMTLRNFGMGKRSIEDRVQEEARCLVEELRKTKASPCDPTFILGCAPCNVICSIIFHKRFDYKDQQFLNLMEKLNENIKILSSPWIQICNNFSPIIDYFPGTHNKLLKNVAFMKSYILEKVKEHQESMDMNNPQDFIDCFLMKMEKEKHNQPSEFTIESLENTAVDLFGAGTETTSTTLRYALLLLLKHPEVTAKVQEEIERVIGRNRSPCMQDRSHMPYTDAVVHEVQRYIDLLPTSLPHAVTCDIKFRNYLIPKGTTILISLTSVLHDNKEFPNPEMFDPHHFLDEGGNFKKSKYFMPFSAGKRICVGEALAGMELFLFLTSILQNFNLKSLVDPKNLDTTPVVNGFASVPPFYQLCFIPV
CYP2C19, sequence (P33261 whole entry): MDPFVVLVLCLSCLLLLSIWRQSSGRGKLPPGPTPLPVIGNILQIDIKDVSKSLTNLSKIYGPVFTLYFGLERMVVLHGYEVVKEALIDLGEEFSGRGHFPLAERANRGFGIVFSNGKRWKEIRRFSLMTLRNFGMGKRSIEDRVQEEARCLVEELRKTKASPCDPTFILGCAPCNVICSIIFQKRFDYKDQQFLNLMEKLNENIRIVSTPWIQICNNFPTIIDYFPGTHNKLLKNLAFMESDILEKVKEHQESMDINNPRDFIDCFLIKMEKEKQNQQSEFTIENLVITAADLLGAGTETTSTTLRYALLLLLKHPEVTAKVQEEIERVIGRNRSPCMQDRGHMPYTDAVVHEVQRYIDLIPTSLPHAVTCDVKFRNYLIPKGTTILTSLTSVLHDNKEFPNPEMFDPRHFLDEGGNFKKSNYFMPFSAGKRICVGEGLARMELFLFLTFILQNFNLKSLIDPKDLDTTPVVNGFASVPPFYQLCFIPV
CYP2D6, sequence (P10635 whole entry): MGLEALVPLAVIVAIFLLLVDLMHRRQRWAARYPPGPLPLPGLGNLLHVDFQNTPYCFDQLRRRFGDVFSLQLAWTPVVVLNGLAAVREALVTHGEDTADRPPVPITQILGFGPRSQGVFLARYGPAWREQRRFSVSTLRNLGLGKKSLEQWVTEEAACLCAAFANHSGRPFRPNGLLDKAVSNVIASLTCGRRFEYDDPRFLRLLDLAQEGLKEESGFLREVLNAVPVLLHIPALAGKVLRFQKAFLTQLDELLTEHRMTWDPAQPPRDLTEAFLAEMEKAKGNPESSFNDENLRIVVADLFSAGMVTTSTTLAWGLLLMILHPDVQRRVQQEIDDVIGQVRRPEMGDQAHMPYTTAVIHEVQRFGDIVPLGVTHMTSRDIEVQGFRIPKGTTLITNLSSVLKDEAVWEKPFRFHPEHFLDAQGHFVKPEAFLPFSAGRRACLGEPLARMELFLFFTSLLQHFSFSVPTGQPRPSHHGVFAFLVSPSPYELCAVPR

Structure (SMILES): CSCCC(NC(=O)NCc1ccc(N)cc1)C(=O)N1CCCC1c1ccccc1SC.O=C(O)C(F)(F)F (stereo not drawn) [Compound 30]
- LogD [1]: 2.6
- Rate of metabolism by human cytochrome P450 CYP2C9 (CYP2C9 [2]): 0.49 pmol/pmol P450/min
- IC50 (CYP2C19): > 25 µM
- Inhibition of cytochrome P450 activity, IC50 CYP2C19 (CYP2C19): Neither compound 29 nor compound 30 significantly inhibited
- EC50 (HIV-IIIb): 15 ± 1.2 µM
- Rate of metabolism by human cytochrome P450 CYD2D6 (CYP2D6): 1.24 pmol/pmol P450/min
- Rate of metabolism by human cytochrome P450 CYP2B6 (CYP2B6): < 0.12 pmol/pmol P450/min
- Rate of metabolism by human cytochrome P450 CYP2B6 (CYP2B6; listed as compound 30): Neither compound 29 nor compound 30 was metabolized
- IC50 (CYP2C8): 9.4 µM
- Inhibition of cytochrome P450 activity, IC50 CYP2C8 (CYP2C8): moderate inhibitors
- Human plasma binding Bound [3]: 85.1%
- Human plasma binding Unbound [3]: 14.9%
- Hepatic microsomal stability, T1/2 [4]: 35.5 min
- IC50 (CYP2C9 [5]): > 25 µM
- Inhibition of cytochrome P450 activity, IC50 CYP2C9 (CYP2C9 [5]): Neither compound 29 nor compound 30 significantly inhibited
